Laboratory results: publication PMC11018795, “The regulatory relationship between NAMPT and PD-L1 in cancer and identification of a dual-targeting inhibitor” (EMBO Molecular Medicine, 2024)
Several values for one entry are separate records, joined by “and”; a condition that tells them apart may be missing. Identical values can stand only once.

Key:
PD-L1 = biological target: T1, PD-L1 (Homo sapiens, UniProt Q9NZQ7); assay: Cellular thermal shift assay (CETSA), PD-L1, A2780 cells; assay type: binding; settings: for Relative band intensity (PD-L1): LZFPN-90 20 nM
T1 construct: endogenous in cells; host or cells: A2780
Procedure: (§1) The cells were resuspended in 1× PBS supplemented with protease inhibitors (Roche) and then divided into strip tubes for 30 min. The tubes were centrifuged at 15,000× g at 4 °C for 15 min. After centrifugation, the supernatant was divided into DMSO and LZFPN-90 (20 nM) groups, and incubated at room temperature for 30 min. According to standard procedures (38 °C, 42 °C, 46 °C, 50 °C, 54 °C, 58 °C, 62 °C, 66 °C), each temperature group was heated for 3 min, incubated at room temperature for 3 min. Then centrifuged at 20,000× g for 25 min, the supernatant was collected, 1× loading buffer was added, the mixture was heated in a metal bath at 95 °C for 10 min, and the amount of non-denatured protein per sample was quantified by western blotting.

A549 cells = assay: MTT assay 48 h, A549; assay type: cell-based, human
Procedure: (§2) Cells (5 × 10^3/well) were seeded into a 96-well plate and cultured at 37 °C in a 5% CO2 incubator. […] At the final time point, 10 μl MTT solution (5 mg/ml, Sigma, Burlington, MA, USA) was added to each well and incubated for an additional 4 h at 37 °C in a 5% CO2 incubator. Then,100 μl of DMSO was added to each well and mixed thoroughly. Optical density was measured at 492 nm using a microplate reader (Molecular Devices, San Jose, CA, USA).

PC9 cells = assay: MTT assay 48 h, PC9; assay type: cell-based, human
Procedure: as §2

MKN74 cells = assay: MTT assay 48 h, MKN74; assay type: cell-based, human
Procedure: as §2

A2780 cells = assay: Clonogenic assay, A2780; assay type: cell-based, human; settings: 9 days
Procedure: (§3) Cells (3 × 10^2/well) were plated in a six-well plate and the culture medium was replaced every 2 days. After culturing for 7–10 d, the cells were fixed with 4% paraformaldehyde for 15 min, stained with 0.1% crystal violet for 30 min, and imaged and counted.

HCT-116 cells = assay: Clonogenic assay, HCT-116; assay type: cell-based, human; settings: 9 days
Procedure: as §3

LLC cells = assay: Cell cycle analysis, LLC; assay type: cell-based, mouse
Text: Supplement 44321_2024_51_MOESM5_ESM.zip/Fig4-D.xlsx, sheet "Sheet1" | column: G0/G1; S; G2/M

A20 tumors = assay: A20 tumor-bearing Balb/c mice; assay type: in vivo, mouse; settings: for tumor inhibition rate (TIR) / tumor growth inhibition (TGI) rate at endpoint: 12 days, Fig 6B
NAMPT = NAMPT (Homo sapiens, UniProt P43490); assay: Cellular thermal shift assay (CETSA), NAMPT, A2780 cells; assay type: binding; parameters: endogenous in cells; host or cells: A2780; settings: for Relative band intensity (NAMPT): LZFPN-90 20 nM
Procedure: as §1

Sequence of NAMPT (P43490 whole entry): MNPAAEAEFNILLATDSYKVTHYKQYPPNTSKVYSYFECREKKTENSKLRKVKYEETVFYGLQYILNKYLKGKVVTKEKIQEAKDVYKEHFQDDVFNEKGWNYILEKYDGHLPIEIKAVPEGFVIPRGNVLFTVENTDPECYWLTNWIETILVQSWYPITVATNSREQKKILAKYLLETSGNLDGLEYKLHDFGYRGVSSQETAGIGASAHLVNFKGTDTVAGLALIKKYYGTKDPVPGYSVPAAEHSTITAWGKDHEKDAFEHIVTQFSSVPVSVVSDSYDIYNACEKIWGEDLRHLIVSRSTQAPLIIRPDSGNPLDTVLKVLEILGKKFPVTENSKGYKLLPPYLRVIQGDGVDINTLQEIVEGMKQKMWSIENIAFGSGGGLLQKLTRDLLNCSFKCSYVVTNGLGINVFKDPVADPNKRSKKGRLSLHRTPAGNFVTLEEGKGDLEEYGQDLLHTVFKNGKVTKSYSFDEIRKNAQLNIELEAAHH
T1 sequence (Q9NZQ7 19-290): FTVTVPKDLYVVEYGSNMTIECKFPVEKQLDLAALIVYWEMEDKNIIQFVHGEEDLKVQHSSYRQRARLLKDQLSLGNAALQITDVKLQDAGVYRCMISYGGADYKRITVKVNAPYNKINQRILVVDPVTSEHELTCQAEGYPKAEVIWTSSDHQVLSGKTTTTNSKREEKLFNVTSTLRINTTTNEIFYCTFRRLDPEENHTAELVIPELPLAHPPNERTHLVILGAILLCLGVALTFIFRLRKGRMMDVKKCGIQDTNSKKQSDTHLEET

CCN(CC)CCCOc1cccc(-c2cccc3c2CCN3C(=O)c2ncc(CNC(=NC#N)Nc3ccncc3)s2)c1 [LZFPN-90]
thermal stability of PD-L1 (PD-L1; LZFPN-90 20 nM vs blank group): the stability of NAMPT and PD-L1 increased
Relative band intensity (PD-L1) (PD-L1; 38 ℃): 0.8 and 0.83
Relative band intensity (PD-L1) (PD-L1; 42 ℃): 0.79 and 0.8
Relative band intensity (PD-L1) (PD-L1; 46 ℃): 0.86 and 0.82
Relative band intensity (PD-L1) (PD-L1; 50 ℃): 0.7 and 0.76
Relative band intensity (PD-L1) (PD-L1; 54 ℃): 0.56 and 0.61
Relative band intensity (PD-L1) (PD-L1; 58 ℃): 1 and 1.07
Relative band intensity (PD-L1) (PD-L1; 62 ℃): 0.96 and 0.92
Relative band intensity (PD-L1) (PD-L1; 66 ℃): 0.36 and 0.31
Relative inhibition (敏感性) (A549 cells): 0.24
Relative inhibition (敏感性) (PC9 cells): 0.29
Relative inhibition (敏感性) (MKN74 cells): 0.79
Colony formation relative to Ctrl (A2780 cells; LZ90-H (2 nM)): 0.01
Colony formation relative to Ctrl (A2780 cells; LZ90-L (0.5 nM), Ctrl = 1): 0.64
Colony formation relative to Ctrl (A2780 cells; LZ90-M (1 nM)): 0.11
Colony formation relative to Ctrl (HCT-116 cells; LZ90-H (2 nM)): 0.17
Colony formation relative to Ctrl (HCT-116 cells; LZ90-L (0.5 nM), Ctrl = 1): 0.6
Colony formation relative to Ctrl (HCT-116 cells; LZ90-M (1 nM)): 0.26
Cell cycle G0/G1 (LLC cells; LZ90 20): 32.7 and 33.42 and 33.1
Cell cycle G2/M (LLC cells; LZ90 20): 8.23 and 9.12 and 10.84
Cell cycle S (LLC cells; LZ90 20): 58.16 and 55.72 and 58.65
Cell cycle G0/G1 (LLC cells; LZ90 40): 31.17 and 30.64 and 32.74
Cell cycle G2/M (LLC cells; LZ90 40): 10.63 and 9.6 and 10.7
Cell cycle S (LLC cells; LZ90 40): 59.19 and 58.63 and 56.62
Cell cycle G0/G1 (LLC cells; LZ90 60): 31.65 and 30.97 and 32.77
Cell cycle G2/M (LLC cells; LZ90 60): 11.3 and 9.97 and 11.14
Cell cycle S (LLC cells; LZ90 60): 58.36 and 57.86 and 55.9
tumor inhibition rate (TIR) / tumor growth inhibition (TGI) rate at endpoint (A20 tumors; 20 mg/kg i.p.): 73.76%
tumor inhibition rate (TIR) / tumor growth inhibition (TGI) rate at endpoint (A20 tumors; 40 mg/kg i.p.): 83.11%
effect on mouse organ or body weight (A20 tumors; A20 model, FK866 20 mg/kg, LZFPN-90 20 and 40 mg/kg i.p.): no obvious effect on mouse organ or body weight
TIR (relative tumor weight) (A20 tumors; Balb/c mice, 20 mg/kg i.p., Fig 6E): 73.8%
tumor inhibition rate (TIR) (A20 tumors; repeat experiment, 40 mg/kg i.p.): 82.70%
effect on mouse organ index or body weight (A20 tumors; repeat experiment, LZFPN-90 40 mg/kg, FK866 20 mg/kg + CQ-85 20 mg/kg i.p.): no obvious effect on mouse organ index or body weight
effect on body weight and organ index (A20 tumors; two animal models (A20 and LLC OE NAMPT/PD-L1)): did not affect the body weight and organ index
thermal stability of NAMPT (NAMPT; LZFPN-90 20 nM vs blank group): the stability of NAMPT and PD-L1 increased
Relative band intensity (NAMPT) (NAMPT; 38 ℃): 1.21 and 1.06
Relative band intensity (NAMPT) (NAMPT; 42 ℃): 1.16 and 1.1
Relative band intensity (NAMPT) (NAMPT; 46 ℃): 1.06 and 1.08
Relative band intensity (NAMPT) (NAMPT; 50 ℃): 1.08 and 1.02
Relative band intensity (NAMPT) (NAMPT; 54 ℃): 1.25 and 1.19
Relative band intensity (NAMPT) (NAMPT; 58 ℃): 1.21 and 1.16
Relative band intensity (NAMPT) (NAMPT; 62 ℃): 1.18 and 1.13
Relative band intensity (NAMPT) (NAMPT; 66 ℃): 0.52 and 0.48
